Data published in patent publication US11655216B2 (priority 2016, dated 2023).
pEC50: −log10 of the molar value. Read-outs that look alike come from different tables or passages of the source.

How the values were obtained:
[1] = target: T1, glutathione-S-transferase (GST) tagged LXRbeta LBD (ligand binding domain) (Homo sapiens, UniProt P55055); assay: LanthaScreen TR-FRET Liver X Receptor Coactivator Assay, LXR beta; type: biochemical; conditions: for pEC50: LXR beta IP, potency (Inflection Point), compound-induced co-activator recruitment, TR-FRET; for Emax: read-out: LXR beta actiivty at max dose, efficacy (% Emax) in relation to reference dual agonist T0901317
T1 construct: purchased Invitrogen pv4658
T1 sequence (P55055 222-460 limits assumed): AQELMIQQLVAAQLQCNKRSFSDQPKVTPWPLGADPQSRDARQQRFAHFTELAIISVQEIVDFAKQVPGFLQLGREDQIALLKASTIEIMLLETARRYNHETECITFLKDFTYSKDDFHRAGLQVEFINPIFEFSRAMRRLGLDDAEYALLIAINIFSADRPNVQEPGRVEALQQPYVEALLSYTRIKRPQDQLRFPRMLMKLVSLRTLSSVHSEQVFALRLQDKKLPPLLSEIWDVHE
Experimental: (§1) While running the LanthaScreen™ TR-FRET Liver X Receptor Coactivator Assay, LXR alpha-LBD or LXR beta-LBD was added to ligand test compounds followed by addition of a mixture of a fluorescein-labelled coactivator peptide and terbium-conjugated anti-GST antibody. After an incubation period at room temperature, TR-FRET (time-resolved fluorescence resonance energy transfer) was measured using a filter-based instrument capable of TR-FRET, e.g. PerkinElmer Envision.

[2] = target: T2, glutathione-S-transferase (GST) tagged LXRalpha LBD (ligand binding domain) (Homo sapiens, UniProt Q13133); assay: biochemical; conditions: for pEC50: LXR alpha IP; for pEC50 / LXR alpha IP: potency (Inflection Point), compound-induced co-activator recruitment, TR-FRET
T2 construct: purchased Invitrogen pv4655
T2 sequence (Q13133 209-447 limits assumed): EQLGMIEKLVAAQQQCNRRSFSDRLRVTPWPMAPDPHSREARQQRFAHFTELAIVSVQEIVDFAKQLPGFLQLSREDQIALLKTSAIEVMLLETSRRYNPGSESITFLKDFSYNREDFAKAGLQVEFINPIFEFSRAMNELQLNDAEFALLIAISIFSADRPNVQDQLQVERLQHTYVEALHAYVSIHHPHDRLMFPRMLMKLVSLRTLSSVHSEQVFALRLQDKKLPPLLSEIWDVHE
Experimental: as §1

[3] = read-out: LXR alpha actiivty at max dose, efficacy (% Emax) in relation to reference dual agonist T0901317

Row | Compound | pEC50 [1] | Emax [1] | pEC50 [2] | Emax [2, 3] | Emax ([2]; efficacy (% Emax) in relation to reference dual agonist T0901317, read-out: LXR alpha actiivty at max dose) | LXR alpha IP [2]
1 | COc1cccc([C@@](O)(C(=O)N2CCC(CCCCOc3ccc(C(=O)N(C)C)c(C#N)n3)CC2)C(F)(F)F)c1 (single isomer, unassigned) [Example 4-2, (R or S)-2-cyano-N,N-dimethyl-6-(4-(1-(3,3,3-trifluoro-2-hydroxy-2-(3-methoxyphenyl)propanoyl)piperidin-4-yl)butoxy) nicotinamide] | 7.92 | 81% | 6.31 | 28% | – | –
2 | COc1cccc(C(O)(C(=O)N2CCC(CCCCOc3ccc(C(=O)N(C)C)c(OC)c3)CC2)C(F)(F)F)c1 (single isomer, unassigned) [Example 5-1, (R or S)-2-methoxy-N,N-dimethyl-4-(4-(1-(3,3,3-trifluoro-2-hydroxy-2-(3-methoxyphenyl)propanoyl)piperidin-4-yl)butoxy)benzamide] | 7.44 | 66% | – | – | 7% | No IP
3 | O=C(c1ccc(OCCCCC2CCN(C(=O)C(O)(c3ccccc3)C(F)(F)F)CC2)cc1Cl)N1CCC1 (single isomer, unassigned) [Example 8-1, (R or S)-1-(4-(4-(4-(azetidine-1-carbonyl)-3-chlorophenoxy)butyl)piperidin-1-yl)-3,3,3-trifluoro-2-hydroxy-2-phenylpropan-1-one] | 7.48 | 55% | 6.48 | 10% | – | –
4 | O=C(NC1CC1)c1ccc(OCCCCC2CCN(C(=O)[C@](O)(c3ccccc3)C(F)(F)F)CC2)cc1Cl (single isomer, unassigned) [Example 8-2, (R or S)-2-chloro-N-cyclopropyl-4-(4-(1-(3,3,3-trifluoro-2-hydroxy-2-phenylpropanoyl)piperidin-4-yl)butoxy) benzamide] | 7.89 | 68% | 6.28 | 29% | – | –
5 | O=C(c1ccc(OCCCCC2CCN(C(=O)[C@](O)(c3ccccc3)C(F)(F)F)CC2)cc1Cl)N1CC[C@@H](O)C1 (single isomer, unassigned) [Example 8-3, (R or S)-1-(4-(4-(3-chloro-4-((R or S)-3-hydroxy-pyrrolidine-1-carbonyl)phenoxy)butyl)piperidin-1-yl)-3,3,3-trifluoro-2-hydroxy-2-phenylpropan-1-one] | 7.77 | 39% | 6.00 | 26% | – | –
6 | O=C(c1ccc(OCCCCC2CCN(C(=O)C(O)(c3ccccc3)C(F)(F)F)CC2)cc1Cl)N1CC(F)(F)C1 (single isomer, unassigned) [Example 8-4, (R or S)-1-(4-(4-(3-chloro-4-(3,3-difluoroazetidine-1-carbonyl)phenoxy)butyl)piperidin-1-yl)-3,3,3-trifluoro-2-hydroxy-2-phenylpropan-1-one] | 7.92 | 60% | 7.32 | 18% | – | –
7 | CC1(C)CCN(C(=O)c2ccc(OCCCCC3CCN(C(=O)C(O)(c4ccccc4)C(F)(F)F)CC3)cc2Cl)C1 (single isomer, unassigned) [Example 8-5, (R or S)-1-(4-(4-(3-chloro-4-(3,3-dimethyl-pyrrolidine-1-carbonyl)phenoxy)butyl)piperidin-1-yl)-3,3,3-trifluoro-2-hydroxy-2-phenylpropan-1-one] | 7.74 | 27% | – | 1% | – | No IP
8 | O=C(N[C@H]1CCOC1)c1ccc(OCCCCC2CCN(C(=O)[C@](O)(c3ccccc3)C(F)(F)F)CC2)cc1Cl (single isomer, unassigned) [Example 8-6, 2-chloro-N-((S or R)-tetrahydrofuran-3-yl)-4-(4-(1-((R or S)-3,3,3-trifluoro-2-hydroxy-2-phenylpropanoyl)piperidin-4-yl)butoxy) benzamide] | 7.07 | 75% | 5.98 | 35% | – | –
9 | O=C(c1ccc(OCCCCC2CCN(C(=O)[C@](O)(c3ccccc3)C(F)(F)F)CC2)cc1Cl)N1CCC[C@H]1CO (single isomer, unassigned) [Example 8-7, (R or S)-1-(4-(4-(3-chloro-4-((S or R)-2-(hydroxymethyl)pyrrolidine-1-carbonyl)phenoxy)butyl)piperidin-1-yl)-3,3,3-trifluoro-2-hydroxy-2-phenylpropan-1-one] | 8.15 | 48% | 6.88 | 42% | – | –
10 | O=C(c1ccc(OCCCCC2CCN(C(=O)[C@](O)(c3ccccc3)C(F)(F)F)CC2)cc1Cl)N1CCC[C@@H]1CO (single isomer, unassigned) [Example 8-8, (R or S)-1-(4-(4-(3-chloro-4-((R or S)-2-(hydroxymethyl)pyrrolidine-1-carbonyl)phenoxy)butyl)piperidin-1-yl)-3,3,3-trifluoro-2-hydroxy-2-phenylpropan-1-one] | 7.68 | 44% | 6.19 | 27% | – | –
11 | O=C(NCC(F)F)c1ccc(OCCCCC2CCN(C(=O)[C@](O)(c3ccccc3)C(F)(F)F)CC2)cc1Cl (single isomer, unassigned) [Example 8-9, (R or S)-2-chloro-N-(2,2-difluoroethyl)-4-(4-(1-(3,3,3-trifluoro-2-hydroxy-2-phenylpropanoyl)piperidin-4-yl)butoxy) benzamide] | 7.03 | 82% | 6.07 | 34% | – | –
12 | CCNC(=O)c1ccc(OCCCCC2CCN(C(=O)[C@](O)(c3ccccc3)C(F)(F)F)CC2)cc1Cl (single isomer, unassigned) [Example 8-10, (R or S)-2-chloro-N-ethyl-4-(4-(1-(3,3,3-trifluoro-2-hydroxy-2-phenylpropanoyl)piperidin-4-yl)butoxy) benzamide] | 7.52 | 76% | 6.14 | 28% | – | –
13 | CC(C)(C)OC(=O)NC1CN(C(=O)c2ccc(OCCCCC3CCN(C(=O)[C@](O)(c4ccccc4)C(F)(F)F)CC3)cc2Cl)C1 (single isomer, unassigned) [Example 8-11, (R or S)-tert-butyl 1-(2-chloro-4-(4-(1-(3,3,3-trifluoro-2-hydroxy-2-phenylpropanoyl)piperidin-4-yl)butoxy)benzoyl) azetidin-3-ylcarbamate] | 7.74 | 56% | 6.28 | 32% | – | –
14 | CN(C(=O)c1ccc(OCCCCC2CCN(C(=O)[C@](O)(c3ccccc3)C(F)(F)F)CC2)cc1Cl)C1CC1 (single isomer, unassigned) [Example 8-12, (R or S)-2-chloro-N-cyclopropyl-N-methyl-4-(4-(1-(3,3,3-trifluoro-2-hydroxy-2-phenylpropanoyl)piperidin-4-yl)butoxy) benzamide] | 7.80 | 64% | 6.45 | 7% | – | –
15 | CN(C(=O)c1ccc(OCCCCC2CCN(C(=O)[C@](O)(c3ccccc3)C(F)(F)F)CC2)cc1Cl)C1COC1 (single isomer, unassigned) [Example 8-13, (R or S)-2-chloro-N-methyl-N-(oxetan-3-yl)-4-(4-(1-(3,3,3-trifluoro-2-hydroxy-2-phenylpropanoyl)piperidin-4-yl)butoxy) benzamide] | 7.66 | 73% | 6.39 | 29% | – | –
16 | O=C(c1ccc(OCCCCC2CCN(C(=O)C(O)(c3ccccc3)C(F)(F)F)CC2)cc1Cl)N1C[C@H]2CC[C@@H]1C2 (single isomer, unassigned) [Example 8-14, (R or S)-1-(4-(4-(4-((1R,4S)-2-azabicyclo[2.2.1]heptane-2-carbonyl)-3-chlorophenoxy)butyl)piperidin-1-yl)-3,3,3-trifluoro-2-hydroxy-2-phenylpropan-1-one] | 7.42 | 48% | 6.64 | 19% | – | –
17 | O=C(c1ccc(OCCCCC2CCN(C(=O)C(O)(c3ccccc3)C(F)(F)F)CC2)cc1Cl)N1C[C@@H]2CC[C@H]1C2 (single isomer, unassigned) [Example 8-15, (R or S)-1-(4-(4-(4-((1S,4R)-2-azabicyclo[2.2.1]heptane-2-carbonyl)-3-chlorophenoxy)butyl)piperidin-1-yl)-3,3,3-trifluoro-2-hydroxy-2-phenylpropan-1-one] | 7.19 | 36% | 6.39 | 9% | – | –
18 | CN(C(=O)c1ccc(OCCCCC2CCN(C(=O)[C@](O)(c3ccccc3)C(F)(F)F)CC2)cc1Cl)[C@H]1CCOC1 (single isomer, unassigned) [Example 8-16, 2-chloro-N-methyl-N-((S or R)-tetrahydro-furan-3-yl)-4-(4-(1-((R or S)-3,3,3-trifluoro-2-hydroxy-2-phenylpropanoyl)piperidin-4-yl)butoxy) benzamide] | 8.00 | 71% | 6.94 | 32% | – | –
